Test results: paper PMC10901292 (European journal of medicinal chemistry, 2024)

Assays:
[1] = target: T1, EZH2 (Homo sapiens, UniProt Q15910); assay: Western blot of EZH2 protein level in MV4; assay type: cell-based; details: 11 cells, 24 h treatment, all tested concentrations (Fig. 8A, 8C)
Target sequence in this assay (Q15910 whole entry): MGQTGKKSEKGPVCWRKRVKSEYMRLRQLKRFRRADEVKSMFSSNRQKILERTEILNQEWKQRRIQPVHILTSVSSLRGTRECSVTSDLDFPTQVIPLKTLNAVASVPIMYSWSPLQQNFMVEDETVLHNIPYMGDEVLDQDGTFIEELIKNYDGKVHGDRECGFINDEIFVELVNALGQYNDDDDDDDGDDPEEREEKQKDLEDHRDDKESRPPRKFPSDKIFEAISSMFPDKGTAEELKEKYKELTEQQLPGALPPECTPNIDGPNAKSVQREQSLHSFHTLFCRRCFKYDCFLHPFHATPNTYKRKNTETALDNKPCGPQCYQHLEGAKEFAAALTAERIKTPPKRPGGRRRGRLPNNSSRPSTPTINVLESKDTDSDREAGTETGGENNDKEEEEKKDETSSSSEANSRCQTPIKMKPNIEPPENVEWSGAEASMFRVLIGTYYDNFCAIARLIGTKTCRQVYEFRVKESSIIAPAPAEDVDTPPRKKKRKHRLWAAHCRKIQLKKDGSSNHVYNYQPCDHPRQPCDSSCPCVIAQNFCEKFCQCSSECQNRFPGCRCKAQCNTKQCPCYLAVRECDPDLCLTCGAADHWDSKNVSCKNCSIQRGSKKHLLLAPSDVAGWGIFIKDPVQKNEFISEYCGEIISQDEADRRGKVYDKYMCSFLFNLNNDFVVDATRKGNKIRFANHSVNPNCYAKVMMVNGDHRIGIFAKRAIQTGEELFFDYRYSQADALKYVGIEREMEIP
Target sequence in this assay (O75530 2-441 partner limits assumed): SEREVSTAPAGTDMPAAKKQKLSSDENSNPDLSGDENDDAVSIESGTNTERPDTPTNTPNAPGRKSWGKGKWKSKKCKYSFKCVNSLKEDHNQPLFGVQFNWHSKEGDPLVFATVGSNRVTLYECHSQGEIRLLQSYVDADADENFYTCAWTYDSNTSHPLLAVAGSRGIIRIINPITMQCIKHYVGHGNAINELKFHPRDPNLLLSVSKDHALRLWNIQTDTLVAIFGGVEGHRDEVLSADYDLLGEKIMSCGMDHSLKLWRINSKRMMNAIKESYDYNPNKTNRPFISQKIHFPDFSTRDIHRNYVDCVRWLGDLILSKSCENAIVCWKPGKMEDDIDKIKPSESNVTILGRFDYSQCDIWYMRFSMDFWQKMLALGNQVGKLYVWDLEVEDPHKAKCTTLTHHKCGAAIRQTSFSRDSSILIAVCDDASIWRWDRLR
Target sequence in this assay (Q15022 whole entry partner): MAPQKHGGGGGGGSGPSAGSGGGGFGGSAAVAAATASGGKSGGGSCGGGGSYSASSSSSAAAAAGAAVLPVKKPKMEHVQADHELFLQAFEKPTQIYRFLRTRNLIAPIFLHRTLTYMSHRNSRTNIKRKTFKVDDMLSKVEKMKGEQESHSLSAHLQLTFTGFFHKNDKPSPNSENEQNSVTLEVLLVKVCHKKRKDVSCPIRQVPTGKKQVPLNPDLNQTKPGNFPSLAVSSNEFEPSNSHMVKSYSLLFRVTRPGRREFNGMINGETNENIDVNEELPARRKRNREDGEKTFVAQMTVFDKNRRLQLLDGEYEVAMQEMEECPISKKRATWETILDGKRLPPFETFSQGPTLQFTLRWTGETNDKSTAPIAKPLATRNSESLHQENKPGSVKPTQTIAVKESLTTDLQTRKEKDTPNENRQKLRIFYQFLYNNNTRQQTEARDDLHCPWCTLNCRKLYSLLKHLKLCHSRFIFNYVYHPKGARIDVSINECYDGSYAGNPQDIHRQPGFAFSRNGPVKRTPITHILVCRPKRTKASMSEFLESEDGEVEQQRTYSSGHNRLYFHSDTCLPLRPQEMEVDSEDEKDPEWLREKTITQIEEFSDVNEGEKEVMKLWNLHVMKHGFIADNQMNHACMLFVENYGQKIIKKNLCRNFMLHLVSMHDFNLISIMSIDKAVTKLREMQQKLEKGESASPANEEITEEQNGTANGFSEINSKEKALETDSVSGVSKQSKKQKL

[2] = target: T1, EZH2; assay: Western blot of EZH2 protein level in EOL-1 cells; assay type: cell-based; details: for EZH2 degradation (EZH2 protein level): 24 h treatment
Target sequence in this assay (Q15910 whole entry): as the sequence (Q15910 whole entry) above
Target sequence in this assay (O75530 2-441 partner limits assumed): as the sequence (O75530 2-441 partner limits assumed) above
Target sequence in this assay (Q15022 whole entry partner): as the sequence (Q15022 whole entry partner) above

[3] = system: K562 cells; assay: Cell viability assay, K562; assay type: cell-based; details: K562 cells (insensitive to EZH2 KO), Fig. S4
[4] = system: panel of 20 protein methyltransferases; assay: Radioactive methyltransferase selectivity panel; assay type: biochemical; details: 10 μM, two replicates
[5] = Mouse pharmacokinetic study
[6] = Tolerability observed in the mouse PK study; details: mice, single IP injection 50 mg/kg
[7] = target: T1, EZH2; assay: Western blot of EZH2 protein level in RS4; assay type: cell-based; details: 11 cells, 24 h treatment, 0.1 and 0.3 μM
Target sequence in this assay (Q15910 whole entry): as the sequence (Q15910 whole entry) above
Target sequence in this assay (O75530 2-441 partner limits assumed): as the sequence (O75530 2-441 partner limits assumed) above
Target sequence in this assay (Q15022 whole entry partner): as the sequence (Q15022 whole entry partner) above

[8] = system: EOL-1 cells; assay: Cell viability WST-8; assay type: cell-based
[9] = target: T1, EZH2; assay: EZH2 methyltransferase inhibition assay; assay type: biochemical; details: Fig. S2A
[10] = target: T2, EZH1 (Homo sapiens, UniProt Q92800); assay: EZH1 methyltransferase inhibition assay; assay type: biochemical; details: Fig. S2B
[11] = target: T1, EZH2; assay: Western blot of EZH2 protein level in BT549 cells; assay type: cell-based; details: 48 h treatment
Target sequence in this assay (Q15910 whole entry): as the sequence (Q15910 whole entry) above
Target sequence in this assay (O75530 2-441 partner limits assumed): as the sequence (O75530 2-441 partner limits assumed) above
Target sequence in this assay (Q15022 whole entry partner): as the sequence (Q15022 whole entry partner) above

[12] = system: MV4; 11 cells; assay: Cell viability WST-8; assay type: cell-based
[13] = target: T1, EZH2; assay: Western blot of EZH2 protein level in MDA-MB-468 cells; assay type: cell-based; details: 48 h treatment
Target sequence in this assay (Q15910 whole entry): as the sequence (Q15910 whole entry) above
Target sequence in this assay (O75530 2-441 partner limits assumed): as the sequence (O75530 2-441 partner limits assumed) above
Target sequence in this assay (Q15022 whole entry partner): as the sequence (Q15022 whole entry partner) above

[14] = target: T2, EZH1; assay: Western blot of EZH1 degradation; assay type: cell-based; details: Fig. S3
Target sequence in this assay (Q92800 whole entry): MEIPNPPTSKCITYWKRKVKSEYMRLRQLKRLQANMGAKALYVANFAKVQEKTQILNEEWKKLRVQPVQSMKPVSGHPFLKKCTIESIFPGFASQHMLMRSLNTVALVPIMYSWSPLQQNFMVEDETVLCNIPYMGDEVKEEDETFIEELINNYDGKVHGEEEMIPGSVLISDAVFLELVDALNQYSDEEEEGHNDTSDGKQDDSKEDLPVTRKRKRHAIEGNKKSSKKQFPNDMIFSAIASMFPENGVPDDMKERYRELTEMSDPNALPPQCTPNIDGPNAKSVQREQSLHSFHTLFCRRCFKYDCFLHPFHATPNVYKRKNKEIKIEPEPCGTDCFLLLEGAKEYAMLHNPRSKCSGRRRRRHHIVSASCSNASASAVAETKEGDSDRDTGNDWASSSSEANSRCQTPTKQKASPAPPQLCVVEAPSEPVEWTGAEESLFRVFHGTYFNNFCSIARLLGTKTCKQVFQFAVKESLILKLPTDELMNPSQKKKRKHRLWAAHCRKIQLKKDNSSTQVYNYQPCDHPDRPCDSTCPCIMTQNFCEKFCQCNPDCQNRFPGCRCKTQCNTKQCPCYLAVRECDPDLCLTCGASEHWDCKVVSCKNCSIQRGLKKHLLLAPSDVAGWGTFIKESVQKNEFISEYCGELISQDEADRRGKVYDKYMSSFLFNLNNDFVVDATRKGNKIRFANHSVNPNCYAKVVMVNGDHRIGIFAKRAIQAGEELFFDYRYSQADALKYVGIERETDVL
Target sequence in this assay (O75530 2-441 partner limits assumed): as the sequence (O75530 2-441 partner limits assumed) above
Target sequence in this assay (Q15022 whole entry partner): as the sequence (Q15022 whole entry partner) above

[15] = system: H3K27me3; assay: Western blot of H3K27me3 mark in EOL-1 cells; assay type: cell-based; details: 24 h treatment (Fig. 4A)
[16] = system: EED; assay: Western blot of EED in EOL-1 cells; assay type: cell-based; details: 24 h treatment (Fig. 4B)
[17] = system: BT549 in vitro spheroids; assay: Bio-Assembler 3D in vitro spheroid TNBC model; assay type: cell-based; details: 5 d treatment
[18] = system: MDA-MB-468 cells; assay: Cell viability WST-8; assay type: cell-based
[19] = system: BT549 cells; assay: Cell viability WST-8; assay type: cell-based

(2R,4S)-1-((S)-2-(11-(3-(4-((3’-(((4,6-dimethyl-2-oxo-1,2-dihydropyridin-3-yl)methyl)carbamoyl)-5’-(ethyl(tetrahydro-2H-pyran-4-yl)amino)-4′-methyl-[1,1′-biphenyl]-4-yl)methyl)piperazin-1-yl)propanamido)undecanamido)-3,3-dimethylbutanoyl)-4-hydroxy-N-(4-(4-methylthiazol-5-yl)benzyl)pyrrolidine-2-carboxamide [MS8847N2]
EZH2 degradation [1]: did not induce EZH2 degradation

CCN(c1cc(-c2ccc(CN3CCN(CCC(=O)NCCCCCCCC(=O)N[C@H](C(=O)N4C[C@H](O)C[C@H]4C(=O)NCc4ccc(-c5scnc5C)cc4)C(C)(C)C)CC3)cc2)cc(C(=O)NCc2c(C)cc(C)[nH]c2=O)c1C)C1CCOCC1 [Compound 5, (2S,4R)-1-((S)-2-(8-(3-(4-((3’-(((4,6-dimethyl-2-oxo-1,2-dihydropyridin-3-yl)methyl)carbamoyl)-5’-(ethyl(tetrahydro-2H-pyran-4-yl)amino)-4′-methyl-[1,1′-biphenyl]-4-yl)methyl)piperazin-1-yl)propanamido)octanamido)-3,3-dimethylbutanoyl)-4-hydroxy-N-(4-(4-methylthiazol-5-yl)benzyl)pyrrolidine-2-carboxamide]
EZH2 degradation (EZH2 protein level) ([2]; SAR study (Fig. 3)): partial degradation

CCN(c1cc(-c2ccc(CN3CCN(CCC(=O)NCCCCCCCCC(=O)N[C@H](C(=O)N4C[C@H](O)C[C@H]4C(=O)NCc4ccc(-c5scnc5C)cc4)C(C)(C)C)CC3)cc2)cc(C(=O)NCc2c(C)cc(C)[nH]c2=O)c1C)C1CCOCC1 [Compound 6, (2S,4R)-1-((S)-2-(9-(3-(4-((3’-(((4,6-dimethyl-2-oxo-1,2-dihydropyridin-3-yl)methyl)carbamoyl)-5’-(ethyl(tetrahydro-2H-pyran-4-yl)amino)-4′-methyl-[1,1′-biphenyl]-4-yl)methyl)piperazin-1-yl)propanamido)nonanamido)-3,3-dimethylbutanoyl)-4-hydroxy-N-(4-(4-methylthiazol-5-yl)benzyl)pyrrolidine-2-carboxamide]
EZH2 degradation (EZH2 protein level) ([2]; SAR study (Fig. 3)): partial degradation

CCN(c1cc(-c2ccc(CN3CCN(CCC(=O)NCCCCCCCCCCC(=O)N[C@H](C(=O)N4C[C@H](O)C[C@H]4C(=O)NCc4ccc(-c5scnc5C)cc4)C(C)(C)C)CC3)cc2)cc(C(=O)NCc2c(C)cc(C)[nH]c2=O)c1C)C1CCOCC1 [MS8847, (2S,4R)-1-((S)-2-(11-(3-(4-((3’-(((4,6-dimethyl-2-oxo-1,2-dihydropyridin-3-yl)methyl)carbamoyl)-5’-(ethyl(tetrahydro-2H-pyran-4-yl)amino)-4′-methyl-[1,1′-biphenyl]-4-yl)methyl)piperazin-1-yl)propanamido)undecanamido)-3,3-dimethylbutanoyl)-4-hydroxy-N-(4-(4-methylthiazol-5-yl)benzyl)pyrrolidine-2-carboxamide]
cell growth inhibition [3]: did not inhibit cell growth | inhibition of any of the 20 methyltransferases [4]: ≤ 50% | time at which Cmax was observed ([5]; male Swiss albino mice, single IP injection 50 mg/kg, HCl form): 4 h | concentration at 9 h ([5]; male, Swiss Albino, mouse, plasma, ip, 50 mg/kg): > 1000 nM | clinical signs of toxicity [6]: did not exhibit obvious clinical signs of toxicity | time at which EZH2 degradation started ([2]; 300 nM): 8 h | time to maximum EZH2 degradation ([2]; 300 nM): ≤ 24 h | EZH2 degradation ([2]; 24 h, 0.1 and 0.3 μM, comparison of five degraders (Fig. 7A)): complete degradation | EZH2 degradation ([2]; 24 h treatment at the indicated concentration (Fig. 4A, Fig. 6A)): effectively induced EZH2 degradation | EZH2 degradation (EZH2 protein level) ([2]; 0.1 μM (Fig. 3)): complete EZH2 degradation | EZH2 degradation (EZH2 protein level) ([2]; 1 μM (Fig. 3)): complete EZH2 degradation | EZH2 degradation [7]: induced EZH2 degradation | fold more potent than MS8815 (anti-proliferative IC50) [8]: more than 3 fold | inhibition of the enzymatic activity of EZH2 [9]: inhibits | inhibition of the enzymatic activity of EZH1 [10]: inhibits | EZH2 degradation [11]: potent EZH2 degradation | fold more potent than U3i (cell growth IC50) [12]: over 2 fold | EZH2 degradation [13]: potent EZH2 degradation | EZH1 degradation [14]: does not degrade | reduction of the H3K27me3 mark [15]: reduced the H3K27me3 mark | EED degradation [16]: potently degraded | EZH2 degradation [1]: near-complete degradation | cell viability of BT549 cells in spheroids (Cell Titer Glo 3D) [17]: significantly reduced | size of BT549 in vitro spheroids ([17]; compared to DMSO-treated control tumors): significantly reduced

CCN(c1cc(-c2ccc(CN3CCN(CCC(=O)NCCCCCCCCCCC(=O)N[C@H](C(=O)N4C[C@H](O)C[C@H]4C(=O)NCc4ccc(-c5scnc5C)cc4)C(C)(C)C)CC3)cc2)cc(C(=O)N(C)Cc2c(C)cc(C)n(C)c2=O)c1C)C1CCOCC1 [MS8847N1, (2S,4R)-1-((S)-2-(11-(3-(4-((3’-(ethyl(tetrahydro-2H-pyran-4-yl)amino)-4′-methyl-5’-(methyl((1,4,6-trimethyl-2-oxo-1,2-dihydropyridin-3-yl)methyl)carbamoyl)-[1,1′-biphenyl]-4-yl)methyl)piperazin-1-yl)propanamido)undecanamido)-3,3-dimethylbutanoyl)-4-hydroxy-N-(4-(4-methylthiazol-5-yl)benzyl)pyrrolidine-2-carboxamide]
EZH2 degradation [1]: did not induce EZH2 degradation

CCN(c1cc(-c2ccc(CN3CCOCC3)cc2)cc(C(=O)NCc2c(C)cc(C)[nH]c2=O)c1C)C1CCOCC1 [EPZ-6438, Tazemetostat]
effect on cell growth [18]: no effect | effect on cell growth [19]: no effect

CCN(c1cc(-c2ccc(CN3CCN(CCC(=O)NCCCCCCCCCC(=O)N[C@H](C(=O)N4C[C@H](O)C[C@H]4C(=O)NCc4ccc(-c5scnc5C)cc4)C(C)(C)C)CC3)cc2)cc(C(=O)NCc2c(C)cc(C)[nH]c2=O)c1C)C1CCOCC1 [Compound 7, (2S,4R)-1-((S)-2-(10-(3-(4-((3’-(((4,6-dimethyl-2-oxo-1,2-dihydropyridin-3-yl)methyl)carbamoyl)-5’-(ethyl(tetrahydro-2H-pyran-4-yl)amino)-4′-methyl-[1,1′-biphenyl]-4-yl)methyl)piperazin-1-yl)propanamido)decanamido)-3,3-dimethylbutanoyl)-4-hydroxy-N-(4-(4-methylthiazol-5-yl)benzyl)pyrrolidine-2-carboxamide]
EZH2 degradation (EZH2 protein level) ([2]; 0.1 μM (Fig. 3)): reduced the EZH2 protein level completely | EZH2 degradation (EZH2 protein level) ([2]; 1 μM (Fig. 3)): less profoundly
